The assay concerns BLM-induced lung fibrosis in mice. The experiment in a line: Bleomycin (BLM)-induced lung fibrosis mice model. In kind it is in vivo, C57BL/6JNarl mice. As to conditions: BLM mice; for fibrosis score, Mean ± SEM: H&E histology day 39. As to the method:
FIGS. 8 (A) and (B) show the effect of L056 effect on fibrosis score of BLM-induced lung fibrosis in mice. C57BL/6 mice (8 weeks) were treated with bleomycin (BLM, 0.05 U/50 μl) or PBS (50 μl) by endotracheal administration. […] On day 39, the mice were sacrificed and, the histologic analysis of lung tissue was performed by hematoxylin-eosin (H&E) staining (original magnification, x100). […] (A), Histology fibrosis score plot; (B), H&E staining plot.
FIG. 9 (A) to (D) show the inhibitory effects on pro-fibrogenic mediators, collagen, CTGF, fibronectin and […], respectively. (A), H&E staining plot for collagen; (B), H&E staining plot for CTGF; (C), H&E staining plot for fibronectin; (D), H&E staining plot for α-SMA.
C57BL/6JNarl mice (8 weeks) were treated with bleomycin (BLM, 0.05 U/50 μl) or PBS (50 μl) by endotracheal administration. […] On day 39, the mice were sacrificed, and the histologic analysis of lung tissue was performed by hematoxylin-eosin (H&E) staining (original magnification, x100).

The mark [1] stands for this setting: 60 mg (oral, q.d., days 10 to 38).
[2] abbreviates: 200 mg (mg/kg/day, q.d., oral, days 10 to 38).

For `COC(=O)c1ccc2c(c1)NC(=O)/C2=C(\Nc1ccc(N(C)C(=O)CN2CCN(C)CC2)cc1)c1ccccc1` [OFEV, nintedanib, reference compound], under setting [1], the “Efficacy % (reduction of fibrosis score)” value is 41.66% and the “fibrosis score, Mean ± SEM” value stood at 3.62 ± 0.30.

On to `Cc1ccc(=O)n(-c2ccccc2)c1` [Esbriet, pirfenidone, reference compound], for which, under setting [2], the “Efficacy % (reduction of fibrosis score)” value is given as 34.08% and the “fibrosis score, Mean ± SEM” value came to 3.91 ± 0.21.

(Values after US12453708B2, “Aminonaphthoquinone compounds for treatment and/or prevention of fibrosis diseases” (CALGENT BIOTECHNOLOGY CO., LTD., priority 2015, dated 2025).)
